Results: patent US11236112B2 (GENFLEET THERAPEUTICS (SHANGHAI) INC., priority 2017, dated 2022)

Key:
[1] = Solubility of different salt types in biological vehicle (SGF, FeSSIF, FaSSIF), HPLC; assay type: physicochemical; settings: 37° C.; for pH value: supernatant
Procedure: 1 ml of biological vehicle solution (FaSSIF, FeSSIF and SGF) was pipetted respectively into a 1.5-ml glass bottle, and then added to the above-mentioned solution at a gradient of 2 mg until 10 mg or the mixture was saturated. The mixture was prepared in 2 parts in parallel, and then shaken at 37° C. Samples were taken after 4 hours and 24 hours, respectively. The samples taken were centrifuged quickly, and the supernatant was measured for pH value and diluted with a diluent to a suitable multiple, and then the concentration was determined by HPLC.

[2] = High-humidity stability test (40° C./75% humidity, open); assay type: physicochemical
[3] = High-temperature stability test (60° C., open container); assay type: physicochemical
[4] = Hygroscopicity by dynamic vapor sorption (DVS); assay type: physicochemical; settings: 25° C./80% RH
Procedure: In the present invention, the dynamic vapor sorption (DVS) is determined by using the following method: instrument model: SMS DVS Advantage dynamic vapor sorption instrument
Test condition: place 10-15 mg of sample in a DVS sample disk for testing.
The detailed DVS parameters are as follows: […]
balance: dm/dt=0.01%/min (minimum: 10 min; maximum: 180 min) drying: dry for 120 min at 0% RH
RH (%) test step range: 0%-90%-0%
The classification of hygroscopicity evaluation is as follows:
1. Experimental material: SMS DVS Advantage dynamic vapor sorption instrument
2. Experimental method: an appropriate amount of the crystal form B of the compound of formula (II) was placed in a DVS sample disk for DVS analysis.

[5] = Approximate solubility in pure water; assay type: physicochemical; settings: thermodynamic from solid, room temperature, 2 mg sample, read-out: Approximate solubility S
Procedure: 2 mg of the sample of each compound was weighed and added to a 1.5-ml glass vial, and a certain volume of pure water was added with a pipette, and ultrasonic solubilization was performed appropriately. The study was conducted at room temperature and tested for solubilization.

TGF-βRI = molecular target: T1, TGF-βRI (Homo sapiens, UniProt P36897); assay: TGFβ-RI receptor binding activity screening in vitro (enzyme activity, IC50)
T1 sequence (P36897 34-503): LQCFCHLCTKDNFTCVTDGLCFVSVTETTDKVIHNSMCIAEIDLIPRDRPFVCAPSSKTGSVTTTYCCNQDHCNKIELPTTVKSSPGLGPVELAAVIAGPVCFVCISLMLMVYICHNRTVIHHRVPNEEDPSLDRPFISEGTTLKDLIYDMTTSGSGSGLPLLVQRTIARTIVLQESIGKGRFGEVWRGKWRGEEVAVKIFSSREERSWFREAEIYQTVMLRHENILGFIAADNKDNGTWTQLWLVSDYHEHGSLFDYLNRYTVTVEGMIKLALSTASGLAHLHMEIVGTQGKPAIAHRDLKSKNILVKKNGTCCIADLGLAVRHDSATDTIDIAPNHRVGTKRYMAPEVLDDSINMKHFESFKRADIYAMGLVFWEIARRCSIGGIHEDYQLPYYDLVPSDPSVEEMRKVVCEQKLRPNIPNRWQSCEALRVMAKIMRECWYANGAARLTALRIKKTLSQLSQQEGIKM

liver cancer patients = settings: phase 2 clinical trial, after treatment; cited from earlier work

CS(=O)(=O)O.Cc1cccc(-c2nn3c(c2-c2ccc4ncnn4c2/C=C/C(N)=O)CCC3)n1
Concentration ([1]; FaSSIF, 4 hours): 5159 µg/mL | State ([1]; FaSSIF, 4 hours): soluble | pH value ([1]; FaSSIF, 4 hours): 4.16 | Concentration ([1]; FaSSIF, 24 hours): 3704 µg/mL | State ([1]; FaSSIF, 24 hours): turbid | pH value ([1]; FaSSIF, 24 hours): 3.71 | Concentration ([1]; FeSSIF, 4 hours): 852 µg/mL | State ([1]; FeSSIF, 4 hours): turbid | pH value ([1]; FeSSIF, 4 hours): 4.58 | Concentration ([1]; FeSSIF, 24 hours): 925 µg/mL | State ([1]; FeSSIF, 24 hours): turbid | pH value ([1]; FeSSIF, 24 hours): 4.60 | Concentration ([1]; SGF, 4 hours): 5103 µg/mL | State ([1]; SGF, 4 hours): soluble | pH value ([1]; SGF, 4 hours): 2.08 | Concentration ([1]; SGF, 24 hours): 5163 µg/mL | State ([1]; SGF, 24 hours): soluble | pH value ([1]; SGF, 24 hours): 2.14

Cc1cccc(-c2nn3c(c2-c2ccc4ncnn4c2/C=C/C(N)=O)CCC3)n1
Content ([2]; day 0): 99.0% | Total impurities ([2]; day 0): 0.57% | Content ([2]; day 30): 100.6% | Total impurities ([2]; day 30): 0.57% | Content ([2]; day 60): 101.1% | Total impurities ([2]; day 60): 0.58% | Content ([2]; day 90): 100.4% | Total impurities ([2]; day 90): 0.58% | Stability under high humidity conditions (conclusion) ([2]; up to 90 days): Conclusion: The high-humidity stability test shows that the crystal form A of the compound of formula (I) has good stability under high humidity conditions. | Content ([3]; day 0): 99.0% | Study on crystal form ([3]; day 0): Crystal form A | Total impurities ([3]; day 0): 0.57% | Content ([3]; day 30): 97.5% | Study on crystal form ([3]; day 30): Crystal form A | Total impurities ([3]; day 30): 0.56% | Content ([3]; day 60): 100.0% | Study on crystal form ([3]; day 60): Crystal form A | Total impurities ([3]; day 60): 0.58% | Content ([3]; day 90): 99.9% | Study on crystal form ([3]; day 90): Crystal form A | Total impurities ([3]; day 90): 0.55% | Stability under high temperature conditions (conclusion) ([3]; up to 90 days): Conclusion: The high-temperature stability test shows that crystal form A of the compound of formula (I) has good stability under high temperature conditions.

Cc1ccc(S(=O)(=O)O)cc1.Cc1cccc(-c2nn3c(c2-c2ccc4ncnn4c2/C=C/C(N)=O)CCC3)n1
Classification of hygroscopicity [4]: slightly hygroscopic | Hygroscopic weight gain ΔW [4]: 0.673%

Cc1cccc(-c2nn3c(c2-c2ccc4ncnn4c2/C=C/C(N)=O)CCC3)n1 [Compound of formula (I)]
solubility [5]: < 1.9 mg/mL | IC50 (TGF-βRI): 40 nM | Concentration ([1]; FaSSIF, 4 hours): 352 µg/mL | State ([1]; FaSSIF, 4 hours): turbid | pH value ([1]; FaSSIF, 4 hours): 6.45 | Concentration ([1]; FaSSIF, 24 hours): 421 µg/mL | State ([1]; FaSSIF, 24 hours): turbid | pH value ([1]; FaSSIF, 24 hours): 6.42 | Concentration ([1]; FeSSIF, 4 hours): 565 µg/mL | State ([1]; FeSSIF, 4 hours): turbid | pH value ([1]; FeSSIF, 4 hours): 4.97 | Concentration ([1]; FeSSIF, 24 hours): 637 µg/mL | State ([1]; FeSSIF, 24 hours): turbid | pH value ([1]; FeSSIF, 24 hours): 4.95 | Concentration ([1]; SGF, 4 hours): 1997 µg/mL | State ([1]; SGF, 4 hours): soluble | pH value ([1]; SGF, 4 hours): 2.37 | Concentration ([1]; SGF, 24 hours): 1994 µg/mL | State ([1]; SGF, 24 hours): soluble | pH value ([1]; SGF, 24 hours): 2.43

Cc1ccc(S(=O)(=O)O)cc1.Cc1cccc(-c2nn3c(c2-c2ccc4ncnn4c2/C=C/C(N)=O)CCC3)n1 [Compound of formula (II)]
solubility [5]: 49 to 98 mg/mL | Concentration ([1]; FaSSIF, 4 hours): 10150 µg/mL | State ([1]; FaSSIF, 4 hours): clear | pH value ([1]; FaSSIF, 4 hours): 3.15 | Concentration ([1]; FaSSIF, 24 hours): 10720 µg/mL | State ([1]; FaSSIF, 24 hours): clear | pH value ([1]; FaSSIF, 24 hours): 3.13 | Concentration ([1]; FeSSIF, 4 hours): 10840 µg/mL | State ([1]; FeSSIF, 4 hours): clear | pH value ([1]; FeSSIF, 4 hours): 1.89 | Concentration ([1]; FeSSIF, 24 hours): 10580 µg/mL | State ([1]; FeSSIF, 24 hours): clear | pH value ([1]; FeSSIF, 24 hours): 1.87 | Concentration ([1]; SGF, 4 hours): 1610 µg/mL | State ([1]; SGF, 4 hours): Suspension | pH value ([1]; SGF, 4 hours): 3.45 | Concentration ([1]; SGF, 24 hours): 1470 µg/mL | State ([1]; SGF, 24 hours): Suspension | pH value ([1]; SGF, 24 hours): 4.26

Cc1cccc(-c2nn3c(c2-c2ccc4ncnn4c2/C=C/C(N)=O)CCC3)n1.Cl [Hydrochloride]
Concentration ([1]; FaSSIF, 4 hours): 4378 µg/mL | State ([1]; FaSSIF, 4 hours): soluble | pH value ([1]; FaSSIF, 4 hours): 3.96 | Concentration ([1]; FaSSIF, 24 hours): 4195 µg/mL | State ([1]; FaSSIF, 24 hours): soluble | pH value ([1]; FaSSIF, 24 hours): 3.97 | Concentration ([1]; FeSSIF, 4 hours): 1028 µg/mL | State ([1]; FeSSIF, 4 hours): turbid | pH value ([1]; FeSSIF, 4 hours): 4.52 | Concentration ([1]; FeSSIF, 24 hours): 1065 µg/mL | State ([1]; FeSSIF, 24 hours): turbid | pH value ([1]; FeSSIF, 24 hours): 4.52 | Concentration ([1]; SGF, 4 hours): 4343 µg/mL | State ([1]; SGF, 4 hours): soluble | pH value ([1]; SGF, 4 hours): 2.04 | Concentration ([1]; SGF, 24 hours): 4427 µg/mL | State ([1]; SGF, 24 hours): soluble | pH value ([1]; SGF, 24 hours): 2.05

Cc1cccc(-c2nn3c(c2-c2ccnc4ccc(C(N)=O)cc24)CCC3)n1 [LY2157299, Galunisertib]
Patients with a decrease in serum alpha-fetoprotein (AFP) levels by at least 20% (liver cancer patients): approximately 23%

Cc1cccc(-c2nn3c(c2-c2ccc4ncnn4c2/C=C/C(N)=O)CCC3)n1 [Sulphate]
Concentration ([1]; FaSSIF, 4 hours): 4998 µg/mL | State ([1]; FaSSIF, 4 hours): soluble | pH value ([1]; FaSSIF, 4 hours): 2.44 | Concentration ([1]; FaSSIF, 24 hours): 5000 µg/mL | State ([1]; FaSSIF, 24 hours): soluble | pH value ([1]; FaSSIF, 24 hours): 2.50 | Concentration ([1]; FeSSIF, 4 hours): 1530 µg/mL | State ([1]; FeSSIF, 4 hours): turbid | pH value ([1]; FeSSIF, 4 hours): 4.22 | Concentration ([1]; FeSSIF, 24 hours): 1504 µg/mL | State ([1]; FeSSIF, 24 hours): turbid | pH value ([1]; FeSSIF, 24 hours): 4.21 | Concentration ([1]; SGF, 4 hours): 4885 µg/mL | State ([1]; SGF, 4 hours): soluble | pH value ([1]; SGF, 4 hours): 1.77 | Concentration ([1]; SGF, 24 hours): 4952 µg/mL | State ([1]; SGF, 24 hours): soluble | pH value ([1]; SGF, 24 hours): 1.84
